Measured values from PMC2001498, “Effects of transplantation and resection of a radiation-induced rat insulinoma on glucose homeostasis and the endocrine pancreas” (British Journal of Cancer, 1986).
Structures can show the parent of a compound that is named as a salt.

System: pancreatic B cell function
Assay: Plasma insulin response to intraperitoneal arginine after tumour resection
Conditions: plasma insulin at 0, 30 and 60 min, groups of 6 rats

N=C(N)NCCC[C@H](N)C(=O)O [arginine, arginine hydrochloride]
plasma insulin response to arginine, 1 day after tumour resection (arginine hydrochloride 2 g kg-1 i.p. in 0.9% NaCl, ex-tumour bearing rats 1 day after resection): failed to evoke a plasma insulin response
insulin response to arginine, 12 days after tumour resection (arginine hydrochloride 2 g kg-1 i.p., ex-tumour bearing rats 12 days after resection): impaired
